# Measurements as given in patent US20240376123A1, “KRAS G12D INHIBITORS AND USES THEREOF” (SUZHOU ZANRONG PHARMA LIMITED, priority 2021, published 2024).
# System: p-ERK in PNAC-1/HPAC cell
# Experiment: Phospho-ERK 1/2 assay (Table 1)
# Format: cell-based
# Settings: Homo sapiens, HPAC, 3 h, read-out: p-ERK IC50, PNAC-1/HPAC cell, 3 hours compound incubation
# Protocol: Allow PNAC-1/HPAC cell growth in a T75 flask in DMEM and 10% 1 fetal calf serum (FCS; Gibco), using standard tissue culture procedures until ˜80% confluency is achieved. Day 1, seed 6000 cells/well in 384 well plate and incubate at 37° C., 5% CO2. Add diluted compound by Echo 550, final DMSO is 0.5%, incubate cells at 37° C., 5% CO2 for 3 hours. Then, remove medium and fix cells with 3.7% formaldehyde in PBS (PFA) by Apricot. Wash with PBS once. Permeabilize cells with cold 100% methanol and repeat wash once with PBS once. Add Li-Cor blocking buffer to each well and incubate 1.5 hours at RT. Remove blocking buffer and add primary antibody mixture (rabbit anti pERK, mouse anti GAPDH). Incubate at 4° C. overnight. Day 2, wash with PBST (Tween-20 in PBS) with total 3 times and then add secondary antibody mixture (goat anti rabbit 800CW (1:800 dilution in the combined solution) and goat anti mouse 680RD (1:800 dilution in the combined solution)), incubate for 60 minutes at RT away from light. Repeat washing with PBST 3 times. After final wash, centrifuge plate up-side-down at 1000 rpm to remove wash solution completely from wells. Before plate scanning, clean the bottom plate surface and the Odyssey* Imager scanning bed (if applicable) with moist, lint-free tissue to avoid any obstructions during scanning. Scan plate with detection in both 700 and 800 nm channels.
row,Structure (SMILES),IC50
1,"C#Cc1c(F)ccc2cccc(-c3nc4c5c(nc(OCC67CCCN6C(COC(=O)N(C)C)CC7)nc5c3F)N3CC5CCC(N5)[C@H]3CO4)c12 (stereo in doubt) [Compound 37, (7a-((((5aS,6R,9S)-2-(8-ethynyl-7-fluoronaphthalen-1-yl)-1-fluoro-5a,6,7,8,9,10-hexahydro-5H-4-oxa-3,10a,11,13,14-pentaaza-6,9-methanonaphtho[1,8-ab]heptalen-12-yl)oxy)methyl)hexahydro-1H-pyrrolizin-3-yl)methyl dimethylcarbamate]",50 nM

# Same assay, conditions: Homo sapiens; PNAC-1/HPAC cell, 3 hours compound incubation; read-out: p-ERK IC50
row,Structure (SMILES),IC50
1,"Oc1cc(-c2nc3c4c(nc(OC[C@@]56CCCN5C[C@H](F)C6)nc4c2F)N2C[C@@H]4CC[C@@H](N4)C2CO3)c2c(Cl)cccc2c1 (stereo partly drawn) [Compound 1, 5-Chloro-4-((6R,9S)-1-fluoro-12-(((2R,7aS)-2-fluorotetrahydro-1H-pyrrolizin-7a(5H)-yl)methoxy)-5a,6,7,8,9,10-hexahydro-5H-4-oxa-3,10a,11,13,14-pentaaza-6,9-methanonaphtho[1,8-ab]heptalen-2-yl)naphthalen-2-ol]",33 nM
2,"Fc1cccc(-c2nc3c4c(nc(OC[C@@]56CCCN5C[C@H](F)C6)nc4c2F)N2C[C@@H]4CC[C@@H](N4)C2CO3)c1C1CC1 (stereo partly drawn) [Compound 21, (6R,9S)-2-(2-cyclopropyl-3-fluorophenyl)-1-fluoro-12-(((2R,7aS)-2-fluorotetrahydro-1H-pyrrolizin-7a(5H)-yl)methoxy)-5a,6,7,8,9,10-hexahydro-5H-4-oxa-3,10a,11,13,14-pentaaza-6,9-methanonaphtho[1,8-ab]heptalene]",1230 nM
3,"C#Cc1cccc2cc(O)cc(-c3nc4c5c(nc(OC[C@@]67CCCN6C[C@H](F)C7)nc5c3F)N3C[C@@H]5CC[C@@H](N5)C3CO4)c12 (stereo partly drawn) [Compound 5, 5-ethynyl-4-((6R,9S)-1-fluoro-12-(((2R,7aS)-2-fluorotetrahydro-1H-pyrrolizin-7a(5H)-yl)methoxy)-5a,6,7,8,9,10-hexahydro-5H-4-oxa-3,10a,11,13,14-pentaaza-6,9-methanonaphtho[1,8-ab]heptalen-2-yl)naphthalen-2-ol]",77 nM
4,"Oc1cc(-c2nc3c4c(nc(OC[C@@]56CCCN5C[C@H](F)C6)nc4c2F)N2C[C@@H]4CC[C@@H](N4)C2CO3)c2cc(F)ccc2c1 (stereo partly drawn) [Compound 3, 6-fluoro-4-((6R,9S)-1-fluoro-12-(((2R,7aS)-2-fluorotetrahydro-1H-pyrrolizin-7a(5H)-yl)methoxy)-5a,6,7,8,9,10-hexahydro-5H-4-oxa-3,10a,11,13,14-pentaaza-6,9-methanonaphtho[1,8-ab]heptalen-2-yl)naphthalen-2-ol]",26 nM
5,"C#Cc1c(F)ccc2cccc(-c3nc4c5c(nc(OC[C@@]67CCCN6C[C@H](F)C7)nc5c3F)N3CC5CCC(N5)C3CO4)c12 (stereo partly drawn) [Compound 8, (6R,9S)-2-(8-ethynyl-7-fluoronaphthalen-1-yl)-1-fluoro-12-(((2R,7aS)-2-fluorotetrahydro-1H-pyrrolizin-7a(5H)-yl)methoxy)-5a,6,7,8,9,10-hexahydro-5H-4-oxa-3,10a,11,13,14-pentaaza-6,9-methanonaphtho[1,8-ab]heptalene]",9 nM
6,"CC(=O)c1cccc2cc(O)cc(-c3nc4c5c(nc(OC[C@@]67CCCN6C[C@H](F)C7)nc5c3F)N3C[C@H]5CC[C@H](N5)[C@H]3CO4)c12 [Compound 26, 1-(8-((5aS,6S,9R)-1-fluoro-12-(((2R,7aS)-2-fluorotetrahydro-1H-pyrrolizin-7a(5H)-yl)methoxy)-5a,6,7,8,9,10-hexahydro-5H-4-oxa-3,10a,11,13,14-pentaaza-6,9-methanonaphtho[1,8-ab]heptalen-2-yl)-6-hydroxynaphthalen-1-yl) ethan-1-one]",148 nM
7,"C#Cc1cccc2cccc(-c3nc4c5c(nc(OC[C@@]67CCCN6C[C@H](F)C7)nc5c3F)N3C[C@@H]5CC[C@@H](N5)C3CO4)c12 (stereo partly drawn) [Compound 19, (6R,9S)-2-(8-ethynylnaphthalen-1-yl)-1-fluoro-12-(((2R,7aS)-2-fluorotetrahydro-1H-pyrrolizin-7a(5H)-yl)methoxy)-5a,6,7,8,9,10-hexahydro-5H-4-oxa-3,10a,11,13,14-pentaaza-6,9-methanonaphtho[1,8-ab]heptalene]",29 nM
8,"Cc1cc(N)nc(-c2nc3c4c(nc(OC[C@@]56CCCN5C[C@H](F)C6)nc4c2F)N2CC4CCC(N4)[C@H]2CO3)c1C(F)(F)F (stereo in doubt) [Compound 53, 6-((5aS,6R,9S)-1-fluoro-12-(((2R,7aS)-2-fluorotetrahydro-1H-pyrrolizin-7a(5H)-yl)methoxy)-5a,6,7,8,9,10-hexahydro-5H-4-oxa-3,10a,11,13,14-pentaaza-6,9-methanonaphtho[1,8-ab]heptalen-2-yl)-4-methyl-5-(trifluoromethyl) pyridin-2-amine]",457 nM
9,"C#Cc1c(F)ccc2cccc(-c3nc4c5c(nc(OCC6(CN7CCOC[C@H]7C)CC6)nc5c3F)N3C[C@H]5CC[C@H](N5)[C@H]3CO4)c12 [Compound 42, (5aS)-2-(8-ethynyl-7-fluoronaphthalen-1-yl)-1-fluoro-12-((1-(((R)-3-methylmorpholino)methyl)cyclopropyl)methoxy)-5a,6,7,8,9,10-hexahydro-5H-4-oxa-3,10a,11,13,14-pentaaza-6,9-methanonaphtho[1,8-ab]heptalene]",159 nM
10,"Oc1cc(-c2nc3c4c(nc(OC[C@@]56CCCN5C[C@H](F)C6)nc4c2F)N2C[C@H]4CC[C@H](N4)[C@H]2CO3)c2c(Cl)cccc2c1 [Compound 27, 5-chloro-4-((5aS,6S,9R)-1-fluoro-12-(((2R,7aS)-2-fluorotetrahydro-1H-pyrrolizin-7a(5H)-yl)methoxy)-5a,6,7,8,9,10-hexahydro-5H-4-oxa-3,10a,11,13,14-pentaaza-6,9-methanonaphtho[1,8-ab]heptalen-2-yl)naphthalen-2-ol]",5 nM
11,"N#Cc1cccc2cccc(-c3nc4c5c(nc(OC[C@@]67CCCN6C[C@H](F)C7)nc5c3F)N3C[C@@H]5CC[C@@H](N5)C3CO4)c12 (stereo partly drawn) [Compound 20, 8-((6R,9S)-1-fluoro-12-(((2R,7aS)-2-fluorotetrahydro-1H-pyrrolizin-7a(5H)-yl)methoxy)-5a,6,7,8,9,10-hexahydro-5H-4-oxa-3,10a,11,13,14-pentaaza-6,9-methanonaphtho[1,8-ab]heptalen-2-yl)-1-naphthonitrile]",735 nM
12,"C#Cc1c(F)ccc2cccc(-c3nc4c5c(nc(OCC67CCCN6C(COC(=O)N6CCOCC6)CC7)nc5c3F)N3CC5CCC(N5)[C@H]3CO4)c12 (stereo in doubt) [Compound 47, (7a-((((5aS,6R,9S)-2-(8-ethynyl-7-fluoronaphthalen-1-yl)-1-fluoro-5a,6,7,8,9,10-hexahydro-5H-4-oxa-3,10a,11,13,14-pentaaza-6,9-methanonaphtho[1,8-ab]heptalen-12-yl)oxy)methyl)hexahydro-1H-pyrrolizin-3-yl)methyl morpholine-4-carboxylate]",105 nM
13,"C#Cc1c(F)ccc2cc(O)cc(-c3nc4c5c(nc(OC[C@@]67CCCN6C[C@H](F)C7)nc5c3F)N3C[C@H]5CC[C@H](N5)[C@H]3CO4)c12 [Compound 111, 5-ethynyl-6-fluoro-4-((5aS,6S,9R)-1-fluoro-12-(((2R,7aS)-2-fluorotetrahydro-1H-pyrrolizin-7a(5H)-yl)methoxy)-5a,6,7,8,9,10-hexahydro-5H-4-oxa-3,10a,11,13,14-pentaaza-6,9-methanonaphtho[1,8-ab]heptalen-2-yl)naphthalen-2-ol]",12 nM
